The numbers were not newly measured in patent US12029822B2, “Drug delivery systems containing oxidized cholesterols” (Georgia Tech Research Corporation, priority 2019, dated 2024), which cites them from elsewhere.

The test system of the series is AB1-HA tumor. Conditions: CTX treatment at Day 9.

`O=P1(N(CCCl)CCCl)NCCCO1` (stereo not shown) [CTX, Cyclophosphamide]: the cure rate is 75%.
